In patent US12404244B2, “Pan-KIT kinase inhibitor having quinoline structure and application thereof” (Tarapeutics Science Inc., priority 2018, dated 2025):
Where two headings read alike, the source gives them in different places.

Key:
BaF3 = test: Proliferation of parental BaF3 cells (CCK-8); type: cell-based, mouse; settings: Mus musculus, read-out: GI50 BaF3
Text: Compounds as provided herein were further evaluated for their inhibitory effects on proliferation of cancer cells by testing their effects on growth of cancer cells. In this example the following cells were used: primary mouse B cells BaF3 (purchased from ATCC), GIST-T1 cells of the human gastrointestinal stromal tumor cell line (expressing wild-type KIT gene) (purchased from Cosmo Bio Co., Ltd. (Japan)). The present lab further constructed and used the following: mouse Tel-Kit-BaF3 (stably expressing KIT wild-type kinase), mouse Tel-Kit/T670I-BaF3 (stably expressing KIT T670I mutant kinase), mouse Tel-Kit/V559A-BaF3 (stably expressing KIT V559A mutant kinase), mouse Tel-Kit/V559D-BaF3 (stably expressing KIT V559D mutant kinase), mouse Tel-Kit/V559G-BaF3 (stably expressing KIT V559G mutant kinase), mouse Tel-Kit/V560D-BaF3 (stably expressing KIT V560D mutant kinase), mouse Tel-Kit/L576P-BaF3 (stably expressing KIT L576P mutant kinase), mouse Tel-Kit/V654A-BaF3 (stably expressing KIT V654A mutant kinase), mouse Tel-Kit/V654A/V559D-BaF3 (stably expressing KIT V654A V559D mutant kinase), mouse Tel-Kit/T670E-BaF3 (stably expressing KIT T670E mutant kinase), mouse Tel-Kit/T670I/V559D-BaF3 (stably expressing KIT T670I V559D mutant kinase), mouse Tel-Kit/S709F-BaF3 (stably expressing KIT S709F mutant kinase), mouse Tel-Kit/D816E-BaF3 (stably expressing KIT D816E mutant kinase), mouse Tel-Kit/D816H-BaF3 (stably expressing KIT D816H mutant kinase), mouse Tel-Kit/D820E-BaF3 (stably expressing KIT D820E mutant kinase), mouse Tel-Kit/D820G-BaF3 (stably expressing KIT D820G mutant kinase), mouse Tel-Kit/D820Y-BaF3 (stably expressing KIT D820Y mutant kinase), mouse Tel-Kit/N822K-BaF3 (stably expressing KIT N822K mutant kinase), mouse Tel-Kit/Y823D-BaF3 (stably expressing KIT Y823D mutant kinase), mouse Tel-Kit/A829P-BaF3 (stably expressing KIT A829P mutant kinase), GIST-T1-T670I cells of the human gastrointestinal stromal tumor cell line (expressing KIT-T670I mutant gene). The above cell lines were constructed by: amplifying respectively the sequences of human KIT and various mutant kinase regions of KIT via PCR, inserting the fragments respectively into MSCV-Puro vectors having a N-terminal TEL fragment and/or a NPM fragment and/or a TPR fragment (purchased from Clontech), transfecting mouse BaF3 cells with the vectors by means of retrovirus to obtain stably transfected cells, removing the growth factor IL-3, and thereby eventually obtaining cell lines that depend on the transferred protein KIT or various mutants of KIT. The GIST-T1-T670I (expressing C-KIT-T670I mutant gene) cell line was constructed by our laboratory as follows: designing sgRNA that targeted a region around T670 of the KIT gene with CRISPR Design Tool (website: crispr.mit.edu, Zhang Feng Lab), cloning it into pSpCas9(BB)-2A-Puro vector; co-transfecting cells with the resultant vector and a single-stranded oligonucleotide having T670I site mutation that is near to T670, subjecting the resultant to antibiotics screening, followed by dilution, and monocellular culture in a 96-well plate; validating the site T670 of the cells by sequence detection via Sanger sequencing.
The cells after incubation were detected using CCK-8 (purchased from MedChem Express, Shanghai, China) cell viability assay kit (CCK-8 may be reduced by dehydrogenase in living cells to a highly water-soluble yellow formazan product, and the amount of the resultant formazan is proportional to the number of living cells), the number of living cells were quantified with a microplate reader, and GI50 of the compounds and the control compounds were calculated (the results shown in Table 2 and Table 3).

[1] = test system: GIST-T1-T670I mouse tumor model; test: Tumor-grafted mouse model established with GIST-T1-T670I cells; type: in vivo; settings: oral, every day
Procedure: In this example Compound 1 and Compound 2 were respectively tested in TEL-cKIT/T670I-BaF3, TEL-cKIT/Y823D-BaF3, TEL-cKIT/D820G-BaF3 and GIST-T1-T670I mouse models.
Experimental protocols were as follows. • (1) Bal b/c female mice aged 4-6 weeks were purchased from Beijing Weitong Lihua Laboratory Animal Co., Ltd., and the mice were raised in an SPF laboratory. The drinking water and padding were sterilized by autoclaving. All operations on mice were conducted under aseptic conditions. • (2) About 5×10^6 TEL-cKIT/T670I-BaF3, TEL-cKIT/Y823D-BaF3, TEL-cKIT/D820G-BaF3 or GIST-T1-T670I cells were respectively injected subcutaneously onto the left back of all mice on Day 0. • (3) From Day 6, for the TEL-cKIT/T670I-BaF3 mouse model the corresponding mice were administrated orally every day with methylcellulose (HKI) as the vehicle (5 mice); with Compound 1 and Compound 2 at a dosage of 10 mg/kg, 20 mg/kg, 40 mg/kg, 100 mg/kg mouse weight (5 mice in each group); and with Sunitnib (purchased from MedChemExpress, China) at a dosage of 40 mg/kg mouse weight (5 mice). From day 6, for the TEL-cKIT/Y823D-BaF3 and TEL-cKIT/D820G-BaF3 mouse models the corresponding mice were administrated orally every day with methylcellulose (HKI) as the vehicle (5 mice); with Compound 1 and Compound 2 at a dosage of 40 mg/kg, 80 mg/kg mouse weight (5 mice in each group); and with Sunitnib (purchased from MedChemExpress, China) at a dosage of 40 mg/kg mouse weight (5 mice). From day 15, for the GIST-T1-T670I mouse model the corresponding mice were administrated orally every day with methylcellulose (HKI) as the vehicle (5 mice); with Compound 1 and Compound 2 at a dosage of 20 mg/kg, 40 mg/kg, 80 mg/kg mouse weight (5 mice in each group); and with Sunitnib at a dosage of 40 mg/kg mouse weight (5 mice). • (4) From day 6 (TEL-cKIT/T670I-BaF3, TEL-cKIT/Y823D-BaF3, TEL-cKIT/D820G-BaF3 mouse model) and From day 15 (GIST-T1-T670I mouse model), respectively, the length/width of the subcutaneous tumor were measured with a vernier caliper every day and the body weight of the mouse was recorded every day so as to determine the effects of Compound 1 and Compound 2 on the body weight and tumor size of the mice, respectively. • (5) The mice were sacrificed on Day 11 after administration for the TEL-cKIT/T670I-BaF3 mouse model, on Day 9 after administration for the TEL-cKIT/Y823D-BaF3 and TEL-cKIT/D820G-BaF3 mouse models, and on Day 28 after administration for the GIST-T1-T670I mouse model. The subcutaneous tumors were taken out, and the tumors were weighed and compared. • (6) The growth trend of subcutaneous tumors was calculated and the tumor size was calculated according to: length×width×width/2 mm^3.

Compound: COc1cc2nccc(Oc3ccc(NC(=O)Cc4ccc(Cl)c(C(F)(F)F)c4)cc3)c2cc1OC [Example 2, N-(4-((6,7-dimethoxyquinolin-4-yl)oxy)phenyl)-2-(4-chloro-3-(trifluoromethyl)phenyl)-acetamide]
- GI50 (BaF3; BaF3 parent cells, 72 hours, CCK-8): 5.97 µM
- inhibitory effects against tumor in mice ([1]; 40 mg/kg): excellent inhibitory effects against tumor in mice
- tumor inhibition rate ([1]; 40 mg/kg): ≥ 80%
- influence on mice weight [1]: without significant influence on mice weight

Compound: COc1cc2nccc(Oc3ccc(NC(=O)Cc4ccc(C)c(C(F)(F)F)c4)cc3)c2cc1OC [Example 1, N-(4-((6,7-dimethoxyquinolin-4-yl)oxy)phenyl)-2-(4-methyl-3-(trifluoromethyl)phenyl)acetamide]
- GI50 (BaF3; BaF3, 72 h): 7.26 µM
- inhibitory effects against tumor in mice ([1]; 40 mg/kg): excellent inhibitory effects against tumor in mice
- influence on mice weight [1]: without significant influence on mice weight
